Source: PMC12549899 (Nature Communications, 2025)

Target: T1, DrOTOP1 F277A (Danio rerio, UniProt Q7ZWK8, F277A)
T1 construct: A previously generated codon-optimized full-length DrOTOP1[8]; (UniProt: Q7ZWK8) construct; expressed in transfected cells; host or cells: HEK-293 (CRL-1573, ATCC)
T1 sequence (Q7ZWK8 1-586 F277A): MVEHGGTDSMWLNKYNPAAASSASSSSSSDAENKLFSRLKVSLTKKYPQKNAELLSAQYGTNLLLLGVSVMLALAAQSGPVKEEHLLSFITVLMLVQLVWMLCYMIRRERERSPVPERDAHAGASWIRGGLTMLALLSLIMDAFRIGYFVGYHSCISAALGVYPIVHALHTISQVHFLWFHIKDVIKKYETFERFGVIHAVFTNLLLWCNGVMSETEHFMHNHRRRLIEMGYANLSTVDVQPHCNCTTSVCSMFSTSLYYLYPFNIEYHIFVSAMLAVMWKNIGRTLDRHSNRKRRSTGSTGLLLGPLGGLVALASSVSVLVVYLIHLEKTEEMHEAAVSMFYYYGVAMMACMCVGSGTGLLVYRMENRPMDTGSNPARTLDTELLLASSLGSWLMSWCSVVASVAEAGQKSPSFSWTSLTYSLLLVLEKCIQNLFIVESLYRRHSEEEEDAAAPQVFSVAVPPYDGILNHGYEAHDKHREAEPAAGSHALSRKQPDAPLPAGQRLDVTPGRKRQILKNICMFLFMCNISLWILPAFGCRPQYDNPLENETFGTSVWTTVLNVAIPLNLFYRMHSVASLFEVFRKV
Assay: Whole-cell patch-clamp, inhibition of acid-evoked currents, DrOTOP1 F277A
Format: cell-based, zebrafish (Danio rerio)
Details: single cells or mean
Text: To functionally test the significance of the two binding sites identified by cryo-EM, we generated point mutations of DrOTOP1 using the binding poses and conformational changes observed in DrOTOP1_C2.2 to guide our mutations. As per the binding pose that best fits our cryo-EM density, C2.2 forms the following interactions in the outer site: hydrophobic packing against many non-polar residues W126, G130, M133, L134, F271, F570, and M573, and π-stacking with W532 (Fig. 5A). In addition, C2.2 could potentially form H-bonds with E267, if the sidechain is protonated or a water bridge is present, and with H574 if it moves closer (Fig. 5A). Likewise, C2.36 presents a heterocyclic nitrogen that can potentially form a H-bond with E267, similarly, provided a protonation or water bridge is present (Fig. 5B). In addition, C2.36 forms a T-shaped π-stacking interaction with H574, whose sidechain has rotated 90 degrees (compared to DrOTOP1_apo), presumably to accommodate the interaction (Fig. 5B). […]
Whole-cell patch-clamp recording was performed as previously described[6],[22],[25]. Recordings were made with an Axopatch 200B amplifier, digitized with a Digidata 1322a 16-bit data acquisition system, acquired with pClamp 8.2 and analyzed with Clampfit 10 (Molecular Devices). […]

**Q.** With `C=C(C)COc1ccccc1NC(=O)c1nc[nH]c1C` [C2.2] as the molecule, how does the inhibition at 10 µM read?
**A.** 76.2%
